Literature values, collected in patent EP0388817A2, “Use of mixed micelles and mixed micelle solutions of immunomodulators” (F. Hoffmann-La Roche AG, priority 1989, dated 1990).

Conditions: octanol/water

Substance	Verteilungskoeffizient in Octanol/Wasser
Vitamin A	> 10^6
Vitamin E	> 10^6
Vitamin K	> 10^6
